Reference: patent US10889584B2, “Bicyclic bis-heteroaryl derivatives as modulators of protein aggregation” (UCB Biopharma SRL, priority 2017, dated 2021)

The compounds below were run against T1, α-synuclein peptide fragments (Peptide 4F, CTGFVKKDQLGK) (Homo sapiens, UniProt P37840) (assay: In-vitro fluorescence polarization assay with alpha-synuclein peptide fragment (4F)). Conditions: peptide 4F 100 nM, 120 min at room temperature, compound 33.3 to 0.015 microM, 50 mM HEPES pH 7.4, 50 mM NaCl, read-out: IC50 (inhibition of self-aggregation of α-synuclein peptide fragment 4F).
T1 construct: purchased American Peptide
Format: biochemical
Protocol: Biological Example 1: In-Vitro Fluorescence Polarization Assay with Alpha-Synuclein Peptide Fragment (4F)
The fluorescence polarization assay tests the ability of compounds to inhibit the self-aggregation of α-synuclein peptide fragments. Peptides were incubated for 120 min at room temperature in the presence or absence of test compounds (compound concentrations were 33.3 to 0.015 microM). Samples were read on a Beckman Coulter DTX 880 plate reader in fluorescence polarization mode using excitation at 485 nm and emission at 520 nm. Data was analyzed using a four-parameter logistic fit (XLFit, IDBS Software). Peptide 4F (CTGFVKKDQLGK (SEQ ID NO: 1)) was prepared by American Peptide. Fresh peptide samples were reconstituted in purified water at 5 mM and diluted into 50 mM HEPES pH 7.4 with 50 mM NaCl to 100 nM final concentration. Solid compounds were dissolved in DMSO (10 mM), and then diluted serially in DMSO (300×) followed by dilution in buffer (1×) to provide solutions with a consistent final DMSO concentration of 0.33%.

SMILES	IC50
CCCCC(Cc1c[nH]c2ccccc12)NC(=O)c1cnc(N2Cc3cn[nH]c3C2)s1 (centres unmarked) [Example 1, 2-(4,6-dihydro-1H-pyrrolo[3,4-c]pyrazol-5-yl)-N-[1-(1H-indol-3-ylmethyl)pentyl]thiazole-5-carboxamide]	2400 nM
CCCCC(Cc1c[nH]c2ccccc12)NC(=O)c1cnc(N2CCc3[nH]ncc3C2)s1 (centres unmarked) [Example 3, N-[1-(1H-indol-3-ylmethyl)pentyl]-2-(1,4,6,7-tetrahydropyrazolo[4,3-c]pyridin-5-yl)thiazole-5-carboxamide]	2200 nM
CCCCC(Cc1c[nH]c2ccccc12)NC(=O)c1cnc(N2CCn3nc(C)cc3C2)s1 (centres unmarked) [Example 4, N-[1-(1H-indol-3-ylmethyl)pentyl]-2-(2-methyl-6,7-dihydro-4H-pyrazolo[1,5-a]pyrazin-5-yl)thiazole-5-carboxamide]	1400 nM
CCCCC(Cc1c[nH]c2ccccc12)NC(=O)c1cnc(N2Cc3cnn(C)c3C2)s1 (centres unmarked) [Example 5, N-[1-(1H-indol-3-ylmethyl)pentyl]-2-(1-methyl-4,6-dihydropyrrolo[3,4-c]pyrazol-5-yl)thiazole-5-carboxamide]	2100 nM
CCCCC(Cc1c[nH]c2ccccc12)NC(=O)c1cnc(N2CCn3nc(C)nc3C2)s1 (centres unmarked) [Example 8, N-[1-(1H-indol-3-ylmethyl)pentyl]-2-(2-methyl-6,8-dihydro-5H-[1,2,4]triazolo[1,5-a]pyrazin-7-yl)thiazole-5-carboxamide]	1600 nM
CCCCC(Cc1c[nH]c2ccccc12)NC(=O)c1cnc(N2CCn3cncc3C2)s1 (centres unmarked) [Example 9, 2-(6,8-dihydro-5H-imidazo[1,5-a]pyrazin-7-yl)-N-[1-(1H-indol-3-ylmethyl)pentyl]thiazole-5-carboxamide]	1500 nM
CCCCC(Cc1c[nH]c2ccccc12)NC(=O)c1cnc(N2CCc3onc(C)c3C2)s1 (centres unmarked) [Example 10, N-[1-(1H-indol-3-ylmethyl)pentyl]-2-(3-methyl-6,7-dihydro-4H-isoxazolo[4,5-c]pyridin-5-yl)thiazole-5-carboxamide]	840 nM
CCCCC(Cc1c[nH]c2ccccc12)NC(=O)c1cnc(N2CCn3c(cc(C(F)(F)F)cc3=O)C2)s1 (centres unmarked) [Example 13, N-[1-(1H-indol-3-ylmethyl)pentyl]-2-[6-oxo-8-(trifluoromethyl)-3,4-dihydro-1H-pyrido[1,2-a]pyrazin-2-yl]thiazole-5-carboxamide]	1400 nM
CCCCC(Cc1c[nH]c2ccccc12)NC(=O)c1cnc(N2CCc3c(cnn3C)C2)s1 (centres unmarked) [Example 16, N-[1-(1H-indol-3-ylmethyl)pentyl]-2-(1-methyl-6,7-dihydro-4H-pyrazolo[4,3-c]pyridin-5-yl)thiazole-5-carboxamide]	1000 nM
CCCCC(Cc1c[nH]c2ccccc12)NC(=O)c1cnc(N2CCn3ccnc3C2)s1 (centres unmarked) [Example 17, 2-(6,8-dihydro-5H-imidazo[1,2-a]pyrazin-7-yl)-N-[1-(1H-indol-3-ylmethyl)pentyl]thiazole-5-carboxamide]	1600 nM
CCCCC(Cc1c[nH]c2ccccc12)NC(=O)c1cnc(N2CCn3c(nnc3C(F)(F)F)C2)s1 (centres unmarked) [Example 18, N-[1-(1H-indol-3-ylmethyl)pentyl]-2-[3-(trifluoromethyl)-6,8-dihydro-5H-[1,2,4]triazolo[4,3-a]pyrazin-7-yl]thiazole-5-carboxamide]	1200 nM
CCCCC(Cc1c[nH]c2ccccc12)NC(=O)c1cnc(N2CCn3nccc3C2)s1 (centres unmarked) [Example 19, 2-(6,7-dihydro-4H-pyrazolo[1,5-a]pyrazin-5-yl)-N-[1-(1H-indol-3-ylmethyl)pentyl]thiazole-5-carboxamide]	1300 nM

More lines, now with the values ahead:

IC50	SMILES
2300 nM	CCCCC(Cc1c[nH]c2ccccc12)NC(=O)c1cnc(N2CCn3cnnc3C2)s1 (centres unmarked) [Example 2, 2-(6,8-dihydro-5H-[1,2,4]triazolo[4,3-a]pyrazin-7-yl)-N-[1-(1H-indol-3-ylmethyl)pentyl]thiazole-5-carboxamide]
2600 nM	CCCCC(Cc1c[nH]c2ccccc12)NC(=O)c1cnc(N2CCn3nncc3C2)s1 (centres unmarked) [Example 6, 2-(6,7-dihydro-4H-triazolo[1,5-a]pyrazin-5-yl)-N-[1-(1H-indol-3-ylmethyl)pentyl]thiazole-5-carboxamide]
2200 nM	CCCCC(Cc1c[nH]c2ccccc12)NC(=O)c1cnc(N2CCn3ncnc3C2)s1 (centres unmarked) [Example 7, 2-(6,8-dihydro-5H-[1,2,4]triazolo[1,5-a]pyrazin-7-yl)-N-[1-(1H-indol-3-ylmethyl)pentyl]thiazole-5-carboxamide]
800 nM	CCCCC(Cc1c[nH]c2ccccc12)NC(=O)c1cnc(N2CCc3onc(C(F)(F)F)c3C2)s1 (centres unmarked) [Example 11, N-[1-(1H-indol-3-ylmethyl)pentyl]-2-[3-(trifluoromethyl)-6,7-dihydro-4H-isoxazolo[4,5-c]pyridin-5-yl]thiazole-5-carboxamide]
900 nM	CCCCC(Cc1c[nH]c2ccccc12)NC(=O)c1cnc(N2CCc3noc(C(F)(F)F)c3C2)s1 (centres unmarked) [Example 12, N-[1-(1H-indol-3-ylmethyl)pentyl]-2-[3-(trifluoromethyl)-6,7-dihydro-4H-isoxazolo[4,3-c]pyridin-5-yl]thiazole-5-carboxamide]
1700 nM	CCCCC(Cc1c[nH]c2ccccc12)NC(=O)c1cnc(N2CCn3c(C)nnc3C2)s1 (centres unmarked) [Example 14, N-[1-(1H-indol-3-ylmethyl)pentyl]-2-(3-methyl-6,8-dihydro-5H-[1,2,4]triazolo[4,3-a]pyrazin-7-yl)thiazole-5-carboxamide]
1300 nM	CCCCC(Cc1c[nH]c2ccccc12)NC(=O)c1cnc(N2CCc3oncc3C2)s1 (centres unmarked) [Example 15, 2-(6,7-dihydro-4H-isoxazolo[4,5-c]pyridin-5-yl)-N-[1-(1H-indol-3-ylmethyl)pentyl]thiazole-5-carboxamide]
1200 nM	CCCCC(Cc1c[nH]c2ccccc12)NC(=O)c1cnc(N2CCc3nn(C)cc3C2)s1 (centres unmarked) [Example 20, N-[1-(1H-indol-3-ylmethyl)pentyl]-2-(2-methyl-6,7-dihydro-4H-pyrazolo[4,3-c]pyridin-5-yl)thiazole-5-carboxamide]
